Data: paper PMC6716272, “In Vivo and In Vitro Analyses of Novel Peptidomimetic Disruptors for the Serotonin 5-HT2C Receptor Interaction With Phosphatase and Tensin Homolog” (Frontiers in Pharmacology, 2019)

Key:
[1] = tested on: cocaine–saline-trained rats; assay: Two-lever drug discrimination, cocaine (5 mg/kg) vs saline; type: in vivo, rat; conditions: for cocaine-lever responding in substitution test / response rate in substitution test: SB242084 0.5 mg/kg; for cocaine-lever responding in substitution test: cocaine 2.5 mg/kg, i.p.; for cocaine-lever responding, pretreatment before cocaine (2.5 mg/kg): lorcaserin 1 mg/kg (30 min) or SB242084 0.5 mg/kg (45 min) before test
Method: (§1) Experimentally naïve male Sprague-Dawley rats (n = 43; Envigo, Inc.) weighing 300–325 g at the beginning of the experiment were housed two per cage in a temperature- (21–23°C) and humidity- (45–50%) controlled environment; lighting was maintained under a 12-h light–dark cycle (0700–1900 h). Rats were maintained at 80–90% of their free-feeding weights by restricting access to water. Rats received water during daily training sessions (5–6 ml/rat/session), in the afternoon several hours after training (20 min), and over the weekend (36 h). Experiments were conducted during the light phase of the light–dark cycle (between 0900 and 1200 h) and were carried out in accordance with the National Institutes of Health Guide for the Care and Use of Laboratory Animals and with the approval of the Institutional Animal Care and Use Committee at University of Texas Medical Branch.
(§2) The procedures were conducted in commercially available two-lever operant chambers (Med Associates, St. Albans, VT). Each chamber was equipped with a water-filled dispenser mounted equidistantly between two retractable response levers on the wall and housed in a light- and soundproof cubicle. Illumination came from a 28-V house light; ventilation and masking noise were provided by a ventilation fan in the right-side wall. A computer with Med-PC IV software was used to run programs and record all experimental events.
(§3) Standard two-lever, water-reinforced drug discrimination procedures were used ([Appel and Cunningham, 1986]; [Callahan and Cunningham, 1995]; [Colpaert, 1999]). Three cohorts (n = 13–16/cohort) were trained to discriminate an injection of a training drug from saline (1.0 ml/kg, i.p.) administered 15 min before start of daily (Monday–Friday) training sessions. In one cohort (n = 14), rats were trained to discriminate the training drug lorcaserin (0.75 mg/kg, 1.0 ml/kg, i.p.) from saline. In a second cohort (n = 13), rats were trained to discriminate the training drug WAY163909 (0.75 mg/kg, 1.0 ml/kg, i.p.) from saline. In the third cohort, rats (n = 16) were trained to discriminate the training drug cocaine (5 mg/kg, 1.0 ml/kg, i.p.) from saline. Two rats in the lorcaserin–saline cohort were excluded from the present study due to failure to maintain the discrimination. Rats in the WAY163909–saline cohort also participated in additional studies ([Wild et al., 2018]); the WAY163909 dose–response curve was reevaluated between studies; a washout period was allowed, and no carryover effects were observed.
(§4) During this phase, only the stimulus-appropriate (drug or saline) lever was present. Training began under a fixed ratio 1 (FR 1) schedule of water reinforcement, and the FR requirement was incremented until all animals were responding reliably under an FR 20 schedule for each experimental condition. For half of the rats, left lever responses were reinforced after training drug administration, whereas right lever responses were reinforced after saline administration; conditions were reversed for the remaining animals. During this phase of training, drug and saline were administered irregularly with the restriction that neither condition prevailed for more than three consecutive sessions.
(§5) After responding stabilized, both levers were presented simultaneously during 15-min training sessions. The rats were required to respond on the stimulus-appropriate (correct) lever to obtain water reinforcement. There were no programmed consequences for responding on the incorrect lever. This phase of training continued until the performance of all rats attained criterion (defined as mean accuracies of at least 80% stimulus-appropriate responding for 10 consecutive sessions).
(§6) Test sessions were initiated and conducted once or twice per week following attainment of criterion. Training sessions were run during the intervening days to maintain discrimination accuracy. […]

PTEN = PTEN lipid phosphatase activity assay (competitive ELISA for PI(4,5)P2); type: biochemical; conditions: 15 min preincubation 37°C with 1 ng/µl PTEN, then 4 µM PI(3,4,5)P3 2.25 h, two independent experiments in triplicate
Method: Lipid phosphatase activity of PTEN was quantified using a PTEN activity ELISA kit (K-4700, Echelon Biosciences, Salt Lake City, UT) following the manufacturer’s protocol. Briefly, 1 ng/µl PTEN enzyme (E-3000, Echelon Bioscience) was incubated with PTEN inhibitor SF1670 (200 µM), 1, 2, and 2 derivatives (10 µM) for 15 min at 37°C. Then, PI(3,4,5)P3 substrate was added for a final concentration of 4 µM, and the reaction was incubated at 37°C for 2.25 h. The lipid phosphatase activity of PTEN was quantified by measuring the amount of PI(4,5)P2 by competitive ELISA in which final absorbance is inversely related to the amount of PI(4,5)P2. The absorbance was measured by FlexStation3 at 450 nm (Molecular Devices). Results are represented as fold change over PTEN + PI(3,4,5)P3 alone (mean ± SD) of two independent experiments run in technical triplicates and analyzed by one-way ANOVA with a priori comparison with PTEN + PI(3,4,5)P3 alone (Dunnett’s; GraphPad Prism 7.02). All statistical analyses were conducted with an experiment-wise error rate of α = 0.05.

[2] = tested on: human unedited 5-HT2CR (h5-HT2CR-CHO cells); conditions: ref Anastasio et al., 2013; cited from earlier work
Description: Agonist binding to the 5-HT2CR results in dynamic changes in receptor conformation and induction of a variety of intracellular signaling pathways ([Berg et al., 1994]; [McGrew et al., 2002]; [Werry et al., 2005]; [Labasque et al., 2008]). Best characterized is coupling of the 5-HT2CR to Gαq/11 proteins to activate phospholipase Cβ (PLCβ), resulting in increased intracellular calcium (Cai ^2+) release, among various other signaling outcomes ([Millan et al., 2008]). One approach to selectively target the 5-HT2CR signaling is through protein–protein interactions that are selective for 5-HT2CR ove ...

[3] = tested on: human unedited 5-HT2CR (h5-HT2CR-CHO cells); type: cell-based; conditions: for EMAX (%5-HT): maximum 5-HT-induced Cai2+ release in presence of 1 nM peptide derivative, 5-HT vehicle, 10^-11 to 10^-6 M, 5-HT alone = 100%, AUC normalised to crystal violet, mean ± SEM of 4–5 biological replicates, SEM; for change of 5-HT EC50 / potency versus 5-HT alone: pretreatment with 1 nM peptide; for elevation of the maximum Cai2+ release induced by 5-HT: pretreatment with peptide (1 nM), p < 0.05
[4] = tested on: WAY163909–saline-trained rats; assay: Two-lever drug discrimination, WAY163909 (0.75 mg/kg) vs saline; type: in vivo, rat
Method: as §1, §2, §3, §4, §5, §6

[5] = tested on: lorcaserin–saline-trained rats; assay: Two-lever drug discrimination, lorcaserin (0.75 mg/kg) vs saline; type: in vivo, rat
Method: as §1, §2, §3, §4, §5, §6

[6] = vs previous cocaine maintenance session, lorcaserin 1 mg/kg, p < 0.05

For `COC(=O)[C@H]1[C@@H](OC(=O)c2ccccc2)C[C@@H]2CC[C@H]1N2C` [cocaine], the “cocaine-lever responding in substitution test” value ([1]; lorcaserin 1 mg/kg) was “full substitution” and the “response rates after training drug” value ([1]; training sessions, cocaine 5 mg/kg i.p., not statistically different from saline) was 25.6 ± 0.55 min⁻¹.

With `Cc1cc2c(cc1Cl)N(C(=O)Nc1ccc(Oc3cccnc3C)nc1)CC2` [SB242084] the “lorcaserin (1 mg/kg)-mediated suppression of cocaine (2.5 mg/kg) lever responding and response rate after SB242084 pretreatment” value ([1]; SB242084 0.5 mg/kg + lorcaserin 1 mg/kg + cocaine 2.5 mg/kg) was “fully recovered”, the “cocaine-lever responding, pretreatment before cocaine (2.5 mg/kg)” value ([1]; combination test) was “did not alter cocaine lever-responding or response rate” and the “cocaine-lever responding in substitution test” value ([1]; lorcaserin 1 mg/kg) was “engendered primarily saline-lever responding”. The “response rate in substitution test” value [1, 6] was “slight but significant increase in response rate”.

For `CC(C)(C)C(=O)Nc1ccc2c(c1)C(=O)C(=O)c1ccccc1-2` [SF1670], the “PTEN lipid phosphatase activity” value (PTEN; 200 µM inhibitor) was “suppresses PTEN lipid phosphatase activity”.

In the case of “Ac-PNQDQNAR-NH2 [compound 2, shorter eight amino acid version of h3L4F]”, the “effect on 5-HT2CR agonist-mediated Cai2+ release” value [2] is listed as “enhance”, the “EMAX (%5-HT)” value [3] is listed as 118 ± 4.0% and the “change of 5-HT EC50 / potency versus 5-HT alone” value [3] is listed as “no change in EC50”. The “elevation of the maximum Cai2+ release induced by 5-HT” value [3] was roughly 20% and the “PTEN lipid phosphatase activity” value (PTEN; 10 µM peptide) was “do not suppress PTEN lipid phosphatase activity”.

With `c1cc2c3c(c1)[C@H]1CCC[C@H]1N3CCNC2` [WAY163909, (7b-R,10a-R)-1,2,3,4,8,9,10,10a-octahydro-7bH-cyclopenta[b][1,4] diazepino [6,7,1hi] indole] the “ED50 (WAY163909-lever responding)” value ([4]; i.p., 15 min before test, 95% CI 0.51–0.61 mg/kg) was 0.56 mg/kg, the “response rates after training drug versus saline” value ([4]; training sessions, WAY163909 0.75 mg/kg i.p., p < 0.05) was “lower than rates after saline” and the substitution for lorcaserin ([5]; substitution test, WAY163909 0.75 mg/kg i.p., full substitution = ≥80% drug-appropriate responding) was “full substitution”. The “response rate in substitution test” value ([5]; vs previous lorcaserin maintenance session, WAY163909 0.75 mg/kg, TAT-r3L4F 2 µmol/kg (trend for 1 µmol/kg)) was “suppressed response rates similar to the training drug”.

In the case of “(S)-1-((S)-4-amino-2-((3S,4S)-4-((S)-1-((S)-1-carboxy-4-guanidinobutylamino)-1-oxo-propan-2-ylcarbamoyl)pyrrolidine-3-carboxamido)-4-oxobutanoyl)pyrrolidine-2-carboxylic acid [compound 7]”, the “potentiation of 5-HT-induced Cai2+ release (in words)” value ([3]; 1 nM peptide, Welch's t-test vs 5-HT alone, α = 0.05) is reported as “potentiated”, the “EMAX (%5-HT)” value [3] is reported as 125 ± 5.2% and the “drug-lever responding in combination with lorcaserin (0.5 mg/kg)” value ([5]; combination test, i.p., TAT-r3L4F 2 µmol/kg (p < 0.05), peptide 7 2, 5 µmol/kg) is reported as “modestly, but not significantly, enhanced”. For the same molecule, the “response rate in combination with lorcaserin (0.5 mg/kg)” value ([5]; combination test, i.p., TAT-r3L4F 2 µmol/kg, peptide 7 2, 5 µmol/kg) was “no change in rate” and the drug-like responding ([5]; substitution test, i.p., TAT-r3L4F 1, 2 µmol/kg, peptide 7 1, 2, 5 µmol/kg (data not shown)) was less than 20%.

For “Ac-PNQDQNARRRKKKERR-NH2 [h3L4F, 16 amino acid peptide homologous to a fragment of the third intracellular loop of the human 5-HT2CR]”, the “effect on 5-HT2CR agonist-mediated Cai2+ release” value [2] is listed as “enhance”, the “EMAX (%5-HT)” value [3] is listed as 131 ± 6.3% and the “change of 5-HT EC50 / potency versus 5-HT alone” value [3] is listed as “no change in EC50”. For the same molecule, the “elevation of the maximum Cai2+ release induced by 5-HT” value [3] was roughly 30% and the “PTEN lipid phosphatase activity” value (PTEN; 10 µM peptide) was “do not suppress PTEN lipid phosphatase activity”.

In the case of `C[C@H]1CNCCc2ccc(Cl)cc21` [lorcaserin, (1R)-8-chloro-2,3,4,5-tetrahydro-1-methyl-1H-3 benzazepine], the “lever responding in substitution test (low-dose series)” value ([1]; TAT-r3L4F alone 1, 2 µmol/kg, lorcaserin alone 0.5 mg/kg, data not shown) is reported as “saline-appropriate responding”, the “full substitution evoked by cocaine (2.5 mg/kg) after lorcaserin (0.5 mg/kg) alone” value ([1]; combination test, lorcaserin 0.5 mg/kg + cocaine 2.5 mg/kg) is reported as “not suppressed” and the “cocaine-lever responding, pretreatment before cocaine (2.5 mg/kg)” value ([1]; combination test) is reported as “significantly reduced cocaine lever-appropriate responding”. For the same molecule, the “response rate, pretreatment before cocaine (2.5 mg/kg)” value ([1]; combination test, lorcaserin 1 mg/kg, p < 0.05) was “significantly reduced”, the “behavioral disruption (failure to complete FR 20)” value ([1]; lorcaserin 1 mg/kg i.p. alone, two rats failed to complete the FR 20 schedule) was “induces behavioral disruption” and the “cocaine-lever responding in substitution test” value ([1]; lorcaserin 1 mg/kg) was “engendered primarily saline-lever responding”. For the same molecule, the “response rates associated with cocaine (2.5 mg/kg)” value ([1]; lorcaserin alone 0.5 mg/kg, or TAT-r3L4F 1, 2 µmol/kg plus lorcaserin 0.5 mg/kg, p < 0.05) was “significantly suppressed the response rates”, the “response rate in substitution test (low-dose series)” value ([1]; vs previous cocaine maintenance session, TAT-r3L4F alone 1, 2 µmol/kg, lorcaserin alone 0.5 mg/kg, data not shown) was “significant reduction in response rates” and the “response rate in substitution test” value [1, 6] was “significant reduction in response rate”. For the same molecule, the “response rate in substitution test” value ([4]; lorcaserin 1 mg/kg (vs saline), TAT-r3L4F 1, 2 µmol/kg (vs previous WAY163909 maintenance session)) was “suppressed response rates versus saline”, the “substitution for WAY163909” value ([4]; substitution test, lorcaserin 1 mg/kg i.p.) was “full substitution” and the ED50 ([5]; Rattus norvegicus, read-out: ED50 (dose predicted to elicit 50% lorcaserin-lever responding)) was 0.54 mg/kg. For the same molecule, the “response rates after training drug versus saline” value ([5]; training sessions, lorcaserin 0.75 mg/kg i.p., p < 0.05) was “lower than rates after saline”.
